Data set [1] in a line: Spectral properties of selected fluorinated fluoresceins and rhodols. The format is physicochemical. The note with it: for Abs.: absorption maximum; for Em.: emission maximum; for ε × 10^-3: extinction coefficient, value is ε × 10^-3; for Quantum Yield: fluorescence quantum yield.
Data set [2] can be described thus: pH titration of fluorophores (pKa).
Description: The dye of interest is first dissolved in a series of buffers that have each been calibrated using a pH meter. Acetate buffers are typically used in the range of pH 46, and phosphate buffers in the pH range 68. Absorption measurements are made using solutions that are approximately 10 1M in concentration, and fluorescence measurements are made using solutions that are approximately 1 μM in concentration. The absorption or emission data is then plotted versus pH to determine pKa values.
The test system of data set [3] is rabbit polyclonal anti-fluorescein IgG (H+L) fraction. Nature of the data set: Fluorescence quenching by anti-fluorescein antibody. The format is binding. The settings on record: 5×10^-9 M dye. As to the method: Solutions of 5×10^-9 M fluorescein and 5×10^-9 M 2',7'-difluorofluorescein (Compound 29) are prepared in 100 mM potassium phosphate buffer, pH 8.0. The fluorescence of each solution is read with excitation at 490 nm. Sequential additions of 0.5 mg/mL rabbit polyclonal anti-fluorescein IgG (H+L) fraction (Molecular Probes, Inc.) are added and the fluorescence measurements are repeated.

A short description of data set [4]: Photodecomposition on illumination in fluorometer. The note with it: % of decreased fluorescence intensity after 33 minutes of illumination in fluorometer at wavelength of maximum excitation. It counts as physicochemical. The protocol:
*% of decreased fluorescence intensity after 33 minutes of illumination in
fluorometer at wavelength of maximum excitation

[5] abbreviates: approximate, from fluorescence emission versus pH (FIG. 3), in water.
Setting [6] is: antibody volume 0 μL, pH 8.0, excitation 490 nm.
[7] abbreviates: antibody volume 2 μL of 0.5 mg/mL, pH 8.0.
[8] abbreviates: antibody volume 4 μL of 0.5 mg/mL, pH 8.0.
Setting [9] is: antibody volume 6 μL of 0.5 mg/mL, pH 8.0.
Where [10] appears, read: antibody volume 8 μL of 0.5 mg/mL, pH 8.0.
The mark [11] stands for this setting: antibody volume 10 μL of 0.5 mg/mL, pH 8.0.
The mark [12] stands for this setting: antibody volume 12 μL of 0.5 mg/mL, pH 8.0.
Where [13] appears, read: antibody volume 15 μL of 0.5 mg/mL, pH 8.0.
Setting [14] is: given in the synthesis examples.

This note sets out measurements from patent US6229055A, “Synthesis of fluorinated xanthene derivatives” (Molecular Probes, Inc., priority 2000, dated 2001).

Broadly, the pKa is the negative logarithm of the acid dissociation constant. Read a high pKa as a weaker acid or stronger base. As for `O=C1OC2(c3cc(F)c(O)cc3Oc3cc(O)c(F)cc32)c2ccccc21` [Compound 29, 2',7'-difluorofluorescein], the Abs. in data set [1] is 490 nm. Besides, the Em. in data set [1] is 513 nm. In addition, the “ε × 10^-3” value in data set [1] was 84.7 cm^-1 M^-1. The “Quantum Yield” value in data set [1] came out at 0.97. The pKa in data set [2] (Table 1) is 4.7; in data set [2] (setting [5]), ~ 4.7. Besides, the “Fluorescence Intensity” value in data set [3] (setting [6]) is given as 100%; in data set [3] (setting [7]) it was 83.6%; in data set [3] (setting [8]), 67.3%; in data set [3] (setting [9]), 51.9%; in data set [3] (setting [10]), 36.5%; in data set [3] (setting [11]) it was 23.8%. In addition, the entries for the “Fluorescence Intensity” value in data set [3] (setting [12]) and in data set [3] (setting [13]) were 13.4% and 6.3%, respectively. In data set [4], this molecule showed a photodecomposition of 8.0%.
In the case of `CN(C)c1ccc2c(c1)Oc1cc(O)c(F)cc1C21OC(=O)c2ccccc21` (stereo not shown) [Compound 51, 2'-fluoro-N,N-dimethylrhodol], in data set [2] (setting [14]), the pKa is given as 4.2.
In the case of `O=C(O)c1ccc(-c2c3cc(F)c(=O)cc-3oc3cc(O)c(F)cc23)c(S(=O)(=O)O)c1` [9-(4-carboxy-2-sulfo)-6-hydroxy-2,7-difluoro-3H-xanthene-3-one], in data set [1], the Abs. turned out to be 497 nm, the Em. turned out to be 517 nm, the “ε × 10^-3” value is 83.8 cm^-1 M^-1 and the “Quantum Yield” value was determined as 0.92. The molecule also yielded a pKa in data set [2] (Table 1) of 4.3. For the same molecule, in data set [4], the photodecomposition is recorded as 7.3%.
Turning to “5-(and-6)-carboxyrhodol [reference compound]”, in data set [1], the Abs. was 494 nm, the Em. came to 521 nm, the “ε × 10^-3” value was 69.6 cm^-1 M^-1 and the “Quantum Yield” value stood at 0.89. The molecule further came in with a pKa in data set [2] (Table 1) of 5.6. Moreover, the photodecomposition in data set [4] stood at 4.0%.
On to `O=C(O)CSc1c(F)c(F)c2c(c1F)C1(OC2=O)c2cc(F)c(O)cc2Oc2cc(O)c(F)cc21` [Compound 59, 6-carboxymethylthio-2',4,5,7,7'-pentafluorofluorescein], for which, in data set [1], the Abs. is listed as 507 nm, the Em. is 526 nm, the “ε × 10^-3” value was 87.5 cm^-1 M^-1 and the “Quantum Yield” value was 0.86.
In the case of `O=C1OC2(c3cc(Cl)c(O)cc3Oc3cc(O)c(Cl)cc32)c2c(F)c(F)c(F)c(F)c21` [Compound 37, 2',7'-dichloro4,5,6,7-tetrafluorofluorescein], in data set [1], the Abs. was 520 nm, the Em. worked out at 538 nm, the “ε × 10^-3” value came to 88.5 cm^-1 M^-1 and the “Quantum Yield” value came out at 0.80. Besides, in data set [2] (Table 1), the pKa turned out to be 4.2. Also, the photodecomposition in data set [4] amounted to 3.0%.
Turning to “5-(and-6)-carboxy-2',4',5',7'-tetrafluorofluorescein [Compound 40]”, in data set [1], the Abs. is 510 nm, the Em. was found to be 533 nm, the “ε × 10^-3” value was found to be 81.3 cm^-1 M^-1 and the “Quantum Yield” value is given as 0.59. The same molecule returned a pKa in data set [2] (Table 1) of 3.7. The molecule further registered a photodecomposition in data set [4] of 6.0%.
Regarding “5-(and-6)-carboxy-2',7'-dichlorofluorescein [reference compound]”, in data set [1], the Abs. turned out to be 504 nm, the Em. worked out at 530 nm, the “ε × 10^-3” value was determined as 80.3 cm^-1 M^-1 and the “Quantum Yield” value is recorded as 0.75.
With “5-(and-6)-carboxy-4',5'-difluorofluorescein [Compound 41]”, in data set [1], the Abs. stood at 510 nm, the Em. turned out to be 534 nm, the “ε × 10^-3” value is 84.2 cm^-1 M^-1 and the “Quantum Yield” value was found to be 0.43. In data set [2] (Table 1), this molecule gave a pKa of 5.2. In addition, in data set [4], the photodecomposition is listed as 11%.
As to `Nc1c(F)c(F)c2c(c1F)C1(OC2=O)c2ccc(O)cc2Oc2cc(O)ccc21` [Compound 68, 6-amino-4,5,7-trifluorofluorescein], in data set [1], the Abs. is on record as 503 nm, the Em. stood at 522 nm, the “ε × 10^-3” value turned out to be 77.5 cm^-1 M^-1 and the “Quantum Yield” value is 0.053.
As to `O=C1OC2(c3cc(F)c(O)cc3Oc3cc(O)c(F)cc32)c2c(F)c(F)c(F)c(F)c21` [Compound 26, 2',4,5,6,7,7'-hexafluorofluorescein], in data set [1], the Abs. amounted to 508 nm, the Em. came out at 527 nm, the “ε × 10^-3” value was determined as 81.2 cm^-1 M^-1 and the “Quantum Yield” value is on record as 0.96. In data set [2] (Table 1), the pKa is 4.8. The photodecomposition in data set [4] worked out at 4.0%.
The molecule `Nc1ccc2c(c1)Oc1cc(O)c(F)cc1C21OC(=O)c2ccccc21` (stereo not shown) [Compound 54, 2'-fluororhodol] yielded a pKa in data set [2] (setting [14]) of 3.8.
Molecule `Nc1cc2c(cc1F)C1(OC(=O)c3ccccc31)c1ccc(O)cc1O2` (stereo not shown) [Compound 52, 7'-fluororhodol] yielded a pKa in data set [2] (setting [14]) of 5.2.
For “5-(and-6)-carboxy-2',7'-difluorofluorescein”, in data set [1], the Abs. amounted to 492 nm, the Em. turned out to be 516 nm, the “ε × 10^-3” value came out at 85.9 cm^-1 M^-1 and the “Quantum Yield” value is on record as 0.92. For the same molecule, the pKa in data set [2] (Table 1) is 4.8. Further, the photodecomposition in data set [4] is recorded as 9.0%.
In data set [1], “5-(and-6)-carboxy-N,N-dimethyl-2'-fluororhodol” yielded an Abs. of 519 nm and an Em. of 553 nm. Besides, in data set [2] (Table 1), the pKa is on record as 4.2. In data set [4], the photodecomposition came to 5.0%.
On the same counts, the results for “5-(and-6)-carboxy-2'-fluororhodol [Compound 55]” are 495 nm, 518 nm, 3.8 and 4.0%.
In the case of `O=C1OC2(c3ccc(O)cc3Oc3cc(O)ccc32)c2ccccc21` [fluorescein, reference compound], the Abs. in data set [1] came to 490 nm. In data set [1], this molecule showed an Em. of 514 nm. Further, in data set [1], the “ε × 10^-3” value worked out at 82.2 cm^-1 M^-1. The “Quantum Yield” value in data set [1] is listed as 0.92. The same molecule yielded a pKa in data set [2] (Table 1) of 6.5. The “Fluorescence Intensity” value in data set [3] (setting [6]) is 100%; in data set [3] (setting [7]), 84.6%; in data set [3] (setting [8]) it was 68.8%; in data set [3] (setting [9]) it was 54.3%; in data set [3] (setting [10]) it was 38.5%; in data set [3] (setting [11]), 22.9%. For the same molecule, the “Fluorescence Intensity” value in data set [3] (setting [12]) is 11.7%; in data set [3] (setting [13]), 4.4%. Besides, the photodecomposition in data set [4] is recorded as 17%.
For the molecule `O=C(O)CSc1c(F)c(F)c2c(c1F)C1(OC2=O)c2ccc(O)cc2Oc2cc(O)ccc21` [Compound 58, 6-carboxymethylthio-4,5,7-trifluorofluorescein], in data set [1], the Abs. is 507 nm, the Em. amounted to 526 nm, the “ε × 10^-3” value was determined as 63.5 cm^-1 M^-1 and the “Quantum Yield” value worked out at 0.88. For the same molecule, in data set [2] (Table 1), the pKa came out at 4.5. Moreover, the photodecomposition in data set [4] is listed as 5.0%.
As to “5-(and-6)-carboxy-N,N-dimethylrhodol [reference compound]”, in data set [1], the Abs. came to 518 nm, the Em. is 544 nm and the “Quantum Yield” value is on record as 0.26.
In data set [1], “5-(and-6)-carboxy-N,N-dimethyl-7'-fluororhodol” gave an Abs. of 520 nm and an Em. of 546 nm. Moreover, the pKa in data set [2] (Table 1) came to 5.3. The photodecomposition in data set [4] came to 5.0%.
Take `O=c1c(F)c2oc3c(F)c(O)c(F)c(F)c3c(-c3c(F)c(F)c(F)c(F)c3F)c-2c(F)c1F` [Compound 50, 1,2,4,5,7,8-hexafluoro-6-hydroxy-9-pentafluorophenylxanthen-3-one]: the “Quantum Yield” value in data set [1] is reported as 0.11. Also, the pKa in data set [2] (Table 1) was found to be 2.8. In addition, in data set [4], the photodecomposition amounted to 4.0%.
In the case of `CN(C)c1cc2c(cc1F)C1(OC(=O)c3ccccc31)c1ccc(O)cc1O2` (stereo not shown) [Compound 53, N,N-dimethyl-7'-fluororhodol], the pKa in data set [2] (setting [14]) was found to be 5.3.
In data set [1], 5-(and-6)-carboxy-7'-fluororhodol yielded an Abs. of 494 nm and an Em. of 519 nm. The pKa in data set [2] (Table 1) is recorded as 5.2. In data set [4], this molecule returned a photodecomposition of 4.0%.
Take `O=C1OC2(c3cc(Cl)c(O)cc3Oc3cc(O)c(Cl)cc32)c2ccccc21` [2',7'-dichlorofluorescein, reference compound]: the pKa in data set [2] (Table 1) was 5.1; in data set [2] (setting [5]) it was ~ 5.1.
In the case of `[N-]=[N+]=Nc1c(F)c(F)c2c(c1F)C1(OC2=O)c2ccc(O)cc2Oc2cc(O)ccc21` [Compound 78, 6-azido-4,5,7-trifluorofluorescein], in data set [1], the Abs. was determined as 507 nm, the Em. is 527 nm, the “ε × 10^-3” value stood at 79.9 cm^-1 M^-1 and the “Quantum Yield” value was determined as 0.92.
